According to publication PMC3909471 (European journal of medicinal chemistry, 2013):

Tests used:
[1] = target: human CB2 cannabinoid receptor (Homo sapiens, UniProt P34972); assay: [3H]CP55,940 radioligand competition binding, human CB2
[2] = target: rat CB1 cannabinoid receptor (Rattus norvegicus, UniProt P20272); assay: [3H]CP55,940 radioligand competition binding, rat CB1; conditions: removal of the methyl moiety from the N-methylpiperazine analogue
human CB2 receptors [3] = target: T1, human CB2 receptors (Homo sapiens, UniProt P34972); assay: Effect on CP55,940-induced CB2 internalization in hCB2 cells; assay type: cell-based; conditions: 10 nM CP55,940 cotreated with 3 uM compound
[4] = tested on: L5 and L6 spinal nerve ligation neuropathic pain model in rats; assay: Spinal nerve ligation neuropathic pain model, von Frey paw withdrawal threshold; assay type: in vivo, rat; conditions: intraperitoneally 5 – 20 mg/kg
human CB2 receptors [5] = target: T1, human CB2 receptors; assay: hCB2 receptor internalization; assay type: cell-based; conditions: at 10 μM as printed in text

T1 sequence (P34972 whole entry): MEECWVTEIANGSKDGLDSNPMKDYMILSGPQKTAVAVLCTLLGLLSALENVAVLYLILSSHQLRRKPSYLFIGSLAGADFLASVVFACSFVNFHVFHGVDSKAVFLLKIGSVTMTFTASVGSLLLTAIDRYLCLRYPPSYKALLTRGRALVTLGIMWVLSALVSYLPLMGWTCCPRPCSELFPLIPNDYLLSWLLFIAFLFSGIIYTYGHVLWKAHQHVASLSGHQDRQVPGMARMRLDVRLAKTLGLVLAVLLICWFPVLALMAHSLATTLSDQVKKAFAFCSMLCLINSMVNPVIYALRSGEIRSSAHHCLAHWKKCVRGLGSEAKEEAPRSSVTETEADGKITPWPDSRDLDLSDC
Sequence of human CB2 cannabinoid receptor (P34972 whole entry): as above
Sequence of rat CB1 cannabinoid receptor (P20272 whole entry): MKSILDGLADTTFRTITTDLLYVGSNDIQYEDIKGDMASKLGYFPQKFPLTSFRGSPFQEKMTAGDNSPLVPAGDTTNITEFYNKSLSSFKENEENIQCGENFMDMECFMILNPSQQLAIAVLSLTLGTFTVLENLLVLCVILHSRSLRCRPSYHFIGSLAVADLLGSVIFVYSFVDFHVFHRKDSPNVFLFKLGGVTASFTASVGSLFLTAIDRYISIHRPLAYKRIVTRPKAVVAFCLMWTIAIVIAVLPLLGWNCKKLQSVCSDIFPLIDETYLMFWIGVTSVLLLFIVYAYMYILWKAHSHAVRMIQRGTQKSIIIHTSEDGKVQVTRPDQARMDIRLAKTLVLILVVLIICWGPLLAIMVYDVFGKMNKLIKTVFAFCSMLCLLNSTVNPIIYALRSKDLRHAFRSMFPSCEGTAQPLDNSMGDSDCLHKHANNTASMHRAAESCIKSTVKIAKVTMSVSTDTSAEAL

With `CCCCCn1c2ccccc2c2cc(C(=O)N3CCN(C)CC3)ccc21` [Compound 9, (4-Methylpiperazin-1-yl)(9-pentyl-9H-carbazol-3-yl)methanone] the “Improvement of CB2 selectivity” value ([1]; compared to the piperidine analogue 4) was 3 fold.

With `CCCCCn1c2ccccc2c2cc(C(=O)N3CCNCC3)ccc21` [Compound 15, (9-Pentyl-9H-carbazol-3-yl)(piperazin-1-yl)methanone] the “Decrease of CB1 affinity” value [2] was 4 fold.

For `CCCCCn1c2ccccc2c2cc(C(=O)c3ccccc3)ccc21` [Compound 18, (9-Pentyl-9H-carbazol-3-yl)(phenyl)methanone], the “Reduction of hCB2 internalization induced by CP55,940” value (“Reduction” below) (human CB2 receptors [3]) was “more than 50%”.

With `CCCCCn1c2ccccc2c2cc(C(=O)NCC(C)(C)C)ncc21` [Compound 35, N-(2,2-dimethylpropyl)-9-pentyl-9H-pyrido[3,4-b]indole-3-carboxamide] the “Reduction” value (human CB2 receptors [3]) was “more than 50%”.

`CS(=O)(=O)NCCCn1c2ccccc2c2cc(C(=O)N3CCCCC3)ccc21` [Compound 64, N-(3-(3-(Piperidine-1-carbonyl)-9H-carbazol-9-yl)propyl)methanesulfonamide] was tested, and the “Tactile allodynia (paw withdrawal threshold, von Frey filaments)” value [4] was “significantly attenuated tactile allodynia in a dose-dependent manner”.

In the case of `O=C(c1ccc2c(c1)c1ccccc1n2Cc1ccncc1)N1CCCCC1` [Compound 74, Piperidin-1-yl(9-(pyridin-4-ylmethyl)-9H-carbazol-3-yl)methanone], the “Improvement in CB2 selectivity” value ([1]; 4-methylpyridine replacing the 4-methyltetrahydropyran fragment (vs 69)) is reported as 4 fold.

For `CCCCCn1c2ccc(C(=O)N3CCCCC3)cc2c2ccc(OC)cc21` [Compound 81, (7-Methoxy-9-pentyl-9H-carbazol-3-yl)(piperidin-1-yl)methanone], the “Reduction” value (human CB2 receptors [3]) was “reduced compound CP55,940-induced internalization” and the CB2 internalization (human CB2 receptors [5]) was “failed to internalize CB2”.
